Data reported in paper PMC3071374, “High Throughput Screens Yield Small Molecule Inhibitors of Leishmania CRK3:CYC6 Cyclin-Dependent Kinase” (PLoS Neglected Tropical Diseases, 2011).
Where two headings read alike, the source gives them in different places.

What was measured:
[1] = target: Leishmania CRK3:CYC6 (Leishmania major, UniProt O96526); type: biochemical
Protocol: (§1) Leishmania CRK3:CYC6 protein kinase assays were performed in 96-well microtiter plates in a final volume of 25 µl. Each assay point contained 7.5 ng of co-expressed histidine-tagged CRK3:CYC6 protein kinase complex (hereafter referred to as CRK3:CYC6) diluted in enzyme dilution buffer (EDB) (20 mM Tris-HCl pH 7.2, 0.5 mg ml^−1 BSA, 2.5% glycerol and 0.006% Brij-35). Assays were performed using the assay development buffer (ADB) (20 mM MOPS, pH 7.0, 25 mM β-glycerophosphate, 5 mM EGTA, 1 mM NaVO3, 1 mM DTT and 15 mM MgCl2) supplemented with 100 µM ATP, 0.5 µCi of γ-^32P ATP per reaction and histone H1 as a substrate used at 0.4 mg ml^−1. Two and three-fold titrations were set up to determine the concentration of enzyme to be used per assay point (7.5 ng) and to determine the concentrations of selected inhibitors required for 50% inhibition of Leishmania CRK3:CYC6 protein kinase activity (IC50 values), respectively. For IC50 determinations, assay mixes contained DMSO to a final concentration of 2%. Mammalian protein kinase assays were carried out according to the assay protocols developed at Cyclacel. Assays were carried out for 30 minutes at 30°C before stopping the reaction by the addition of an equal volume (25 µl) of 75 mM orthophosphoric acid. Samples were spotted onto a p81 cellulose filterplate (Nunc) and a vacuum applied. Wells were washed 3×200 µl with 75 mM phosphoric acid and the bottom of the plate sealed. 50 µl of Microscint 40 (Perkin Elmer) was added per well before incorporation of radioactivity was determined on a Topcount microplate scintillation counter.

[2] = system: WT promastigote L. major; assay: L. major promastigote growth inhibition assay (resazurin); type: cell-based; settings: for IC50: 5 days at 25°C, read-out: IC50 against WT promastigote L. major; for inhibition of parasite growth in culture (in words): promastigotes and intra-macrophage amastigotes in culture
Protocol: L. major wild type promastigotes (Friedlin strain: WHO designation MHOM/JL/81/Friedlin) were grown at 25°C in HOMEM medium (Invitrogen cat no. 041-94699111) supplemented with 10% (v/v) heat inactivated foetal calf serum (HIFCS) and 1% (v/v) penicillin/streptomycin antibiotics.
CRK3 inhibitors were diluted into HOMEM medium supplemented with 10% HIFCS at twice the final screening concentration. Five-fold or ten-fold serial dilutions were carried out into HOMEM medium supplemented with 10% HIFCS. 100 µl of each drug concentration were added to a 96 well plate in duplicate. 100 µl of five-fold or ten-fold serial dilutions of 1 mM Pentamidine (Sigma) and an equivalent volume of 100% DMSO were included as positive and negative controls, in duplicate, respectively. L. major promastigote cells were diluted to a cell density of 2×10^6 cells ml^−1 in HOMEM media supplemented with 10% HIFCS and 100 µl added to all wells in 96 well plates. Plates were sealed with parafilm and incubated for 5 days at 25°C. After 5 days, 20 µl of filter sterile resazurin solution (12.5 mg resazurin salt in 100 ml PBS) (Sigma) was added to each of the wells and the plate incubated for a further 24 hours at 25°C. Fluorescence was measured using an Envision plate reader (Perkin Elmer) at 540 nm excitation wavelength and 590 nm emission wavelength.

[3] = system: WT amastigote L. major; assay: Intra-macrophage L. major amastigote assay; type: cell-based; settings: for IC50 / activity against amastigotes (in words): infected peritoneal macrophages; for IC50: read-out: IC50 against WT amastigote L. major
Protocol: Macrophages were harvested from the peritoneum of Balb/C mice, centrifuged at 1000× g for 10 minutes at 4°C and resuspended in fresh RPMI 1640 media supplemented with 10% HIFCS and 1% (v/v) Gentamicin, as described previously. Macrophages were diluted to a cell density of 5×10^5 cells ml^-1 in RPMI supplemented with 10% HIFCS and 100 μl were added to each well of a 16-well Lab-tek cavity slide (50,000 mφ/well) and incubated at 37°C, 5% CO2 for subsequent experiments. […] Inhibitors were set up in a five-fold dilution series in RPMI 1640 medium supplemented with 10% […] of inhibitor were added to the wells in serial dilution and slides incubated for 72 hours at 37°C with 5% CO2. After 72 hours the medium was removed and replaced with fresh medium containing the same concentrations of inhibitors and incubated for a further 48 hours at 37°C with 5% CO2. At the end of the incubation period, the medium was removed, the slides were washed twice with fresh RPMI 1640 medium supplemented with 10% HIFCS then fixed with 100% methanol and stained with 10% Giemsa's stain for 10 minutes. The percentage of infected macrophages and number of amastigotes per macrophage were determined by light microscopy under oil immersion.

[4] = target: CDK4:CYCD1 (Homo sapiens, UniProt P11802); assay: Mammalian protein kinase assay, CDK4:CYCD1; type: biochemical; settings: Lexicon azapurine HTS hits
Protocol: as §1

[5] = re-synthesised Lexicon azapurine hits
[6] = Lexicon azapurine HTS hits, maximum concentration tested 10 µM
[7] = synthesised azapurine derivatives

Leishmania CRK3:CYC6, sequence (Q4Q4U0 entry or part of it): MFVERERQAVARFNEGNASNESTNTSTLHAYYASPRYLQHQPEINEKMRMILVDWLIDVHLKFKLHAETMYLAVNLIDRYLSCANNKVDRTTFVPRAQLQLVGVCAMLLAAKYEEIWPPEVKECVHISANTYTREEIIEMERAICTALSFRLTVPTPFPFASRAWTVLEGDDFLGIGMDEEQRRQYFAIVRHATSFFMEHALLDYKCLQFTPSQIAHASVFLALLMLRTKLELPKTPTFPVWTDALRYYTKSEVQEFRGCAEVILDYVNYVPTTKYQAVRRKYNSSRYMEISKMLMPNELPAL
Leishmania CRK3:CYC6, sequence (O96526 entry or part of it): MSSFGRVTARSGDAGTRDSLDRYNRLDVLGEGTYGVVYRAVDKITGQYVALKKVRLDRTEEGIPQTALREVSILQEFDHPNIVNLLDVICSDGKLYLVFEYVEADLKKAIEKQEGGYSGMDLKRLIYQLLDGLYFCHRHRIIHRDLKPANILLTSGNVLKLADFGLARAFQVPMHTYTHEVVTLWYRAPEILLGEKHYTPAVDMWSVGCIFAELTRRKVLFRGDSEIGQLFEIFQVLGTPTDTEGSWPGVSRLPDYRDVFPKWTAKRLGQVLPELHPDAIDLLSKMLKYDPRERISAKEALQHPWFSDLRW
CDK4:CYCD1, sequence (P11802 whole entry): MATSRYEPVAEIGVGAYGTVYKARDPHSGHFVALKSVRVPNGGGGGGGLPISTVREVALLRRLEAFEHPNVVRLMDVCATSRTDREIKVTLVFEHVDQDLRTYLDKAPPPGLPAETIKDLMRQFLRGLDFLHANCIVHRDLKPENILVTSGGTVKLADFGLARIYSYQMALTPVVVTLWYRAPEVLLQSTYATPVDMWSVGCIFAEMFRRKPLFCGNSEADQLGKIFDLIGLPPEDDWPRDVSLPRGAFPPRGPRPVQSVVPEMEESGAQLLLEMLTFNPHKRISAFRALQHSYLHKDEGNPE
CDK4:CYCD1, sequence (P24385 whole entry partner): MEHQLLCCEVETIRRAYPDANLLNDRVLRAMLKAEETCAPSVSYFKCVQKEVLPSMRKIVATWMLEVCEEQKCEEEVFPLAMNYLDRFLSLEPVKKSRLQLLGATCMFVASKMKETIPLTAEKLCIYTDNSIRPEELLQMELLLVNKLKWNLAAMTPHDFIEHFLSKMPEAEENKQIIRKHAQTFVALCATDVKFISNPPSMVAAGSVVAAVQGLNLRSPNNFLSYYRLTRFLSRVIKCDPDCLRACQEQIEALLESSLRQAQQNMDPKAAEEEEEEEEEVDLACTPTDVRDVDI

COc1ccc(-n2nnc3c(N4CCCC(O)C4)nc(CC4CCCCC4)nc32)cc1 (racemic) [Compound 5]
IC50 ([1]; Lexicon azapurine HTS hits): 5.3 µM
IC50 [1, 5]: 4.2 µM
IC50 [2, 6]: 8.6 µM
activity towards the amastigote life cycle stage (in words) [3]: no activity
IC50 ([3]; Lexicon azapurine HTS hits): > 50 µM
IC50 [4]: 9.7 µM

COc1ccc(Cn2nnc3c(N4CCCC(O)C4)nc(CC4CCCCC4)nc32)cc1 (racemic) [Compound 19]
IC50 [1, 7]: > 50 µM
activity towards promastigote L. major (in words) [2]: showed a range of activity
IC50 [2, 7]: 5 to 50 µM

COc1ccc(-n2nnc3c(N4CCCC(O)C4)nc(Cc4ccccc4)nc32)cc1 (racemic) [Compound 29]
inhibition of CRK3/CYC6 in vitro (in words) [1]: did not inhibit
IC50 [1, 7]: > 100 µM
activity towards promastigote L. major (in words) [2]: showed a range of activity
inhibition of parasite growth in culture (in words) [2]: inhibited parasite growth in culture
IC50 [2, 7]: 38.7 µM
activity against amastigotes (in words) [3, 7]: Activity observed at 25 μM

OC1CCCN(c2nc(CC3CCCCC3)nc3c2nnn3Cc2ccc(F)cc2)C1 (racemic) [Compound 33]
IC50 [1, 7]: 47.6 µM
IC50 [2, 7]: > 50 µM
IC50 [3, 7]: > 50 µM

COc1ccc(-n2nnc3c(N(C)CCN(C)C4c5ccccc5CC4O)nc(CC4CCCCC4)nc32)cc1 (stereo not drawn) [Compound 1]
IC50 ([1]; Lexicon azapurine HTS hits): 2.6 µM
IC50 [2, 6]: > 10 µM
IC50 ([3]; Lexicon azapurine HTS hits): > 50 µM
IC50 [4]: 12.5 µM

CCCN(c1nc(CC2CCCCC2)nc2c1nnn2-c1ccc(OC)cc1)C1CCCC1N(C)C (stereo not drawn) [Compound 2]
IC50 ([1]; Lexicon azapurine HTS hits): 3.4 µM
activity towards promastigote L. major (in words) [2]: did not have activity
IC50 [2, 6]: > 10 µM
IC50 ([3]; Lexicon azapurine HTS hits): 38.4 µM
IC50 [4]: 5.6 µM

COc1ccc(-n2nnc3c(NCC(C)O)nc(CC4CCCCC4)nc32)cc1 (stereo not drawn) [Compound 3]
IC50 ([1]; Lexicon azapurine HTS hits): 4.4 µM
IC50 [1, 5]: 24.2 µM
IC50 [2, 6]: > 10 µM
IC50 ([3]; Lexicon azapurine HTS hits): > 50 µM
IC50 [4]: 21.9 µM

COc1ccc(-n2nnc3c(N(C)C4COCC4N(C)C)nc(CC4CCCCC4)nc32)cc1 (stereo not drawn) [Compound 4]
IC50 ([1]; Lexicon azapurine HTS hits): 4.4 µM
IC50 [2, 6]: > 10 µM
IC50 ([3]; Lexicon azapurine HTS hits): > 50 µM
IC50 [4]: 10.3 µM

COc1ccc(-n2nnc3c(N4CCCC(CO)C4)nc(CC4CCCCC4)nc32)cc1 (stereo not drawn) [Compound 6]
IC50 ([1]; Lexicon azapurine HTS hits): 6.9 µM
IC50 [1, 5]: 4.4 µM
IC50 [2, 6]: > 10 µM
IC50 ([3]; Lexicon azapurine HTS hits): > 50 µM
IC50 [4]: 9.2 µM

COc1ccc(-n2nnc3c(N(C)C(CN4CCCCC4)c4ccccc4)nc(CC4CCCCC4)nc32)cc1 (stereo not drawn) [Compound 7]
IC50 ([1]; Lexicon azapurine HTS hits): 7.8 µM
IC50 [4]: 19.5 µM

CCC(CC)Nc1nc(CC2CCCCC2)nc2c1nnn2-c1ccc(OC)cc1 [Compound 8]
IC50 ([1]; Lexicon azapurine HTS hits): 8.1 µM
IC50 [4]: 26.9 µM

COc1ccc(-n2nnc3c(NC(C)C)nc(CC4CCCCC4)nc32)cc1 [Compound 9]
IC50 ([1]; Lexicon azapurine HTS hits): 8.8 µM
IC50 [1, 5]: 37.9 µM
IC50 [4]: 19.8 µM

COc1ccc(-n2nnc3c(NC(Cc4ccccc4)Cn4nc(C)cc4C)nc(CC4CCCCC4)nc32)cc1 (stereo not drawn) [Compound 10]
IC50 ([1]; Lexicon azapurine HTS hits): 10.1 µM
IC50 [4]: 7.3 µM

COc1ccc(-n2nnc3c(N4CC(N5CCN(c6ccccn6)CC5)C4)nc(CC4CCCCC4)nc32)cc1 [Compound 11]
IC50 ([1]; Lexicon azapurine HTS hits): 10.3 µM
IC50 [4]: 6.7 µM

COc1ccc(-n2nnc3c(NC(CO)CC(C)C)nc(CC4CCCCC4)nc32)cc1 (stereo not drawn) [Compound 12]
IC50 ([1]; Lexicon azapurine HTS hits): 10.7 µM
IC50 [4]: 4.6 µM

COc1ccc(Cn2nnc3c(NCc4ccccn4)nc(CC4CCCCC4)nc32)cc1 [Compound 17]
IC50 [1, 7]: 39.1 µM
activity towards promastigote L. major (in words) [2]: showed a range of activity
inhibition of parasite growth in culture (in words) [2]: inhibited parasite growth in culture
IC50 [2, 7]: 7.4 µM
IC50 [3, 7]: 5 to 15 µM

COc1ccc(Cn2nnc3c(N4CCOCC4)nc(CC4CCCCC4)nc32)cc1 [Compound 20]
inhibition of CRK3/CYC6 in vitro (in words) [1]: did not inhibit

COc1ccc(-n2nnc3c(O)nc(Cc4ccc(Br)cc4)nc32)cc1 [Compound 26]
IC50 [1, 7]: > 50 µM

COc1ccc(-n2nnc3c(N4CCOCC4)nc(CC4CCCCC4)nc32)cc1 [Compound 27]
IC50 [1, 7]: 30.3 µM
activity towards promastigote L. major (in words) [2]: showed a range of activity
inhibition of parasite growth in culture (in words) [2]: inhibited parasite growth in culture
IC50 [2, 7]: 28.7 µM
IC50 [3, 7]: 15 to 30 µM

COc1ccc(-n2nnc3c(NCCN4CCOCC4)nc(CC4CCCCC4)nc32)cc1 [Compound 28]
inhibition of CRK3/CYC6 in vitro (in words) [1]: did not inhibit
IC50 [1, 7]: > 50 µM
activity towards promastigote L. major (in words) [2]: showed a range of activity
inhibition of parasite growth in culture (in words) [2]: inhibited parasite growth in culture
IC50 [2, 7]: 8.3 µM
IC50 [3, 7]: 5 to 15 µM

COc1ccc(-n2nnc3c(NCCN4CCOCC4)nc(Cc4ccccc4)nc32)cc1 [Compound 30]
IC50 [1, 7]: > 100 µM
activity towards promastigote L. major (in words) [2]: showed a range of activity
inhibition of parasite growth in culture (in words) [2]: inhibited parasite growth in culture
IC50 [2, 7]: 3.8 µM
activity against amastigotes (in words) [3, 7]: Activity observed at 10 μM

COc1ccc(-n2nnc3c(N4CCCC(CO)C4)nc(Cc4ccccc4)nc32)cc1 (stereo not drawn) [Compound 31]
IC50 [1, 7]: > 20 µM
activity towards promastigote L. major (in words) [2]: showed a range of activity
IC50 [2, 7]: 40 µM
activity against amastigotes (in words) [3, 7]: Activity observed at 25 μM

COc1ccc(-n2nnc3c(NCC(C)O)nc(Cc4ccccc4)nc32)cc1 (stereo not drawn) [Compound 32]
IC50 [1, 7]: > 100 µM
IC50 [2, 7]: > 50 µM
IC50 [3, 7]: > 25 µM

ONc1nc(CC2CCCCC2)nc2c1nnn2Cc1ccc(F)cc1 [Compound 35]
IC50 [1, 7]: > 50 µM
IC50 [2, 7]: > 50 µM
IC50 [3, 7]: > 50 µM
